Columns and labels:
ALS patients [1] = experiment: MCI186-19 trial (19 trial), randomized double-blind placebo-controlled phase 3, edaravone injection, ALSFRS-R; type: in vivo, human; details: edaravone group, placebo −7.50±0.66, p=0.0013
Source text: Clinical trials using edaravone injections include two-group phase 3 trials. In the first phase 3 trials [MCI186-16 trial (hereinafter referred to as the 16 trial) and MCI186-17 trial (hereinafter referred to as the 17 trial)], it was shown that edaravone was involved in suppressing decline in ALS function compared to placebo, as evaluated by an ALSFRS-R total score. A subgroup showing a significant therapeutic effect of Edaravone has been identified by the 16 trial, and an inclusion criterion for this subgroup is also used in designing a second major phase 3 trial, that is, a 19 trial (MCI186-19).
(§1) Edaravone was administered at a dose of 60 mg by intravenous infusion over 60 minutes, once daily. The infusion was given for 14 days in the first treatment cycle, and for 10 days out of the 14-day treatment period in all subsequent cycles. A 14-day drug holiday period was provided after each treatment cycle.
The MCI186-19 trial (hereinafter referred to as the 19 trial) was a randomized, double-blind, parallel-group, placebo-controlled trial. Details of the trial are as described in NCT01492686, Reference 3 (Lancet Neurol 2017; 16 (7): 505-512) and Reference 4 (Amyotroph Lateral Scler Frontotemporal Degener 2017; 18 (suppl 1): 55-63). […]

ALS patients [2] = experiment: Post-hoc statistical analysis 2: ALSFRS-R total score from baseline to cycle 12 (16, 17 and 19 trials), MMRM; type: in vivo, human
Source text: After a 12-week observation period, patients whose ALSFRS-R total score decreased by 1 to 4 points during that period were considered eligible for the trial. In the 16 trial, eligible patients were randomly divided into an edaravone treatment group and a placebo administration group, and patients in each group received administration for 24 weeks (cycles 1 to 6). After completing the 24-week double-blind portion of the 16 trial, patients who received edaravone (E) were randomly assigned to the 17 trial, and during a 24-week double-blind extension period (cycles 7 to 12), edaravone treatment (EE group) or placebo administration (EP group) was performed. On the other hand, all patients from the placebo (P) administration group received edaravone treatment (PE group). All patients received open-label edaravone treatment for the next 12 weeks (cycles 13 to 15).
as §1
Similar to the 16 trial, after a 12-week observation period, patients in the 19 trial were randomly divided into an edaravone treatment group and a placebo administration group, and patients in each group received administration for 24 weeks (cycles 1 to 6). In the 19 trial, after the double-blind treatment period, all patients received open-label edaravone treatment for an additional 24 weeks (cycles 7 to 12). Therefore, the 19 trial included an EE group and a PE group.
In order to characterize the uric acid level and ALSFRS-R total score profiles at cycle 12, efficacy was analyzed in randomized ALS patients at the start of cycle 7 and randomized ALS patients who received the medical agent at least once after the start of cycle 7.
Descriptive statistics (number of subjects, mean, standard deviation, minimum, maximum) were used to summarize the changes in uric acid levels (mg/dL) and ALSFRS-R total scores from baseline to cycle 12 for the entire population and for the Edaravone treatment group as a subgroup defined by the median baseline uric acid level (4.8 mg/dL). The median baseline uric acid level for all patients (4.8 mg/dL) was derived using the entire edaravone population, including the EE, PE, and EP groups in the 16 trial, the 17 trial, and the 19 trial.
The least squares (LS) mean difference of the EE and EP treatment groups compared to the PE treatment group was estimated using a mixed-effects model for repeated measures (MMRM). By using the MMRM, the LS mean, standard error, 95% confidence interval (CI), and p-value for each group are calculated. The MMRM includes treatment group, time point, interaction between treatment group and time point, age (<65 years or >65 years), initial symptoms (bulbar or limb symptoms), ALS diagnostic criteria (ALS definite, ALS highly possible, ALS highly possible with positive test findings, ALS possible), change in ALSFRS-R total score during the 12-week observation period (−1/−2 or −3/−4), and use of riluzole (Yes or No) as fixed effects, and includes baseline of the ALSFRS-R total score or uric acid baseline (mg/dL) of the median subgroup as covariates. A compound symmetric covariance matrix was applied to model covariance of within-patient scores, and the Kenward-Roger approximation was applied to estimate a degrees of freedom of the criteria. The statistical significance level was set at a two-sided level of 0.05.

[3] = Subgroup with uric acid level baseline <4.8 mg/dL, EE group
[4] = Subgroup with uric acid level baseline <4.8 mg/dL, EP group
[5] = Subgroup with uric acid level baseline <4.8 mg/dL, PE group
[6] = Subgroup with uric acid level baseline ≥4.8 mg/dL, EE group
[7] = Subgroup with uric acid level baseline ≥4.8 mg/dL, EP group
[8] = Subgroup with uric acid level baseline ≥4.8 mg/dL, PE group

## CC1=NN(c2ccccc2)C(=O)C1 [edaravone, 3-methyl-1-phenyl-2-pyrazolin-5-one]
ALS patients [1]
  LS mean±standard error of the change in ALSFRS-R from baseline to 24 weeks: −5.01±0.64
ALS patients [2]; Overall, EE group
  ALSFRS-R total score change from BL to cycle 12, LS Mean (SE): −7.2 (1.17) points
  ALSFRS-R total score change from BL to cycle 12, Mean (SD): −8.1 points
ALS patients [2]; Overall, EE group, listed as Edaravone
  ALSFRS-R total score change from BL to cycle 12, Mean (SD): −8.1 (5.97) points
ALS patients [2]; Overall, EP group
  ALSFRS-R total score change from BL to cycle 12, LS Mean (SE): −8.7 (1.28) points
  ALSFRS-R total score change from BL to cycle 12, Mean (SD): −9.6 (6.88) points
ALS patients [2]; Overall, Edaravone-Edaravone (EE) group
  ALSFRS-R total score at Cycle 12, Mean (SD): 33.3 (7.66) points
ALS patients [2]; Overall, Edaravone-Placebo (EP) group
  ALSFRS-R total score at Cycle 12, Mean (SD): 31.3 (7.74) points
ALS patients [2]; Overall, PE group
  ALSFRS-R total score change from BL to cycle 12, LS Mean (SE): −9.9 (1.12) points
  ALSFRS-R total score change from BL to cycle 12, Mean (SD): −10.3 (7.70) points
ALS patients [2]; Overall, Placebo-Edaravone (PE) group
  ALSFRS-R total score at Cycle 12, Mean (SD): 31.2 (8.64) points
ALS patients [2]; [3]
  ALSFRS-R total score at Cycle 12, Mean (SD): 32.6 (8.48) points
  ALSFRS-R total score change from BL to cycle 12, LS Mean (SE): −7.0 (1.38) points
  ALSFRS-R total score change from BL to cycle 12, Mean (SD): −8.7 points
ALS patients [2]; Subgroup with uric acid level baseline <4.8 mg/dL, EE group, listed as Edaravone
  ALSFRS-R total score change from BL to cycle 12, Mean (SD): −8.7 (6.95) points
ALS patients [2]; [4]
  ALSFRS-R total score at Cycle 12, Mean (SD): 31.5 (7.66) points
  ALSFRS-R total score change from BL to cycle 12, LS Mean (SE): −7.8 (1.78) points
  ALSFRS-R total score change from BL to cycle 12, Mean (SD): −9.7 (7.17) points
ALS patients [2]; [5]
  ALSFRS-R total score at Cycle 12, Mean (SD): 31.6 (7.99) points
  ALSFRS-R total score change from BL to cycle 12, LS Mean (SE): −8.5 (1.37) points
  ALSFRS-R total score change from BL to cycle 12, Mean (SD): −9.7 (7.30) points
ALS patients [2]; [6]
  ALSFRS-R total score at Cycle 12, Mean (SD): 34.0 (6.65) points
  ALSFRS-R total score change from BL to cycle 12, LS Mean (SE): −8.1 (0.91) points
  ALSFRS-R total score change from BL to cycle 12, Mean (SD): −7.4 points
ALS patients [2]; Subgroup with uric acid level baseline ≥4.8 mg/dL, EE group, listed as Edaravone
  ALSFRS-R total score change from BL to cycle 12, Mean (SD): −7.4 (4.63) points
ALS patients [2]; [7]
  ALSFRS-R total score at Cycle 12, Mean (SD): 31.1 (7.97) points
  ALSFRS-R total score change from BL to cycle 12, LS Mean (SE): −10.3 (1.05) points
  ALSFRS-R total score change from BL to cycle 12, Mean (SD): −9.5 (6.82) points
ALS patients [2]; [8]
  ALSFRS-R total score at Cycle 12, Mean (SD): 30.8 (9.20) points
  ALSFRS-R total score change from BL to cycle 12, LS Mean (SE): −12.0 (0.77) points
  ALSFRS-R total score change from BL to cycle 12, Mean (SD): −10.9 (8.03) points

Reference: patent US20250134863A1, “MEDICAL AGENT FOR TREATING OR SUPPRESSING PROGRESSION OF AMYOTROPHIC LATERAL SCLEROSIS” (MITSUBISHI TANABE PHARMA CORPORATION, priority 2022, published 2025)
